The results in this text go back to patent US20240325397A1, “USE OF COMBINATION THERAPY FOR TREATING CANCER” (Recurium IP Holdings, LLC, priority 2021, published 2024).

In data set [1] the test system is MCF-7 tumor cells. As to the kind of experiment: Compound (A) in combination with palbociclib in MCF-7 xenograft model. Particulars: 28 days; for tumor regression: Compound (A) 80/60 mg/kg, palbociclib 50 mg/kg, alone or in combination; for TGI: monotherapy: Compound (A) 80/60 mg/kg alone or palbociclib 50 mg/kg alone, FIG. 6. In kind it is in vivo, mouse. How it is done: The antitumor activity of Compound (A) in combination with a CDK4/6 inhibitor, palbociclib was evaluated in the MCF-7 xenograft model. Each mouse was inoculated subcutaneously on the right flank with the MCF-7 tumor cells (1.5×10^7) in 200 μL DMEM Matrigel mixture (1:1 ratio) without serum for the tumor development. In addition, estradiol benzoate injection was delivered by s.c. (40 ug/20 uL, twice weekly). When mean tumor size reached 202 mm^3, mice were randomized into 5 groups (10 animals/group) and treatment was started. Animals were dosed with vehicle, 80/60 mg/kg Compound (A) alone, 50 mg/kg palbociclib alone, 80 mg/kg Compound (A) in combination with 50 mg/kg Palbociclib by sequential dosing schedule (alternated per two weeks) or Compound (A) at 80/60 mg/kg in combination with palbociclib at 50 mg/kg. Treatment periods were 28 days. In FIG. 6, the top line (indicated with circles) is vehicle. […] Furthermore, Compound (A) in combination with palbociclib induced around 55% tumor regression.

The next data set relates to MCF-7 cells. The experiment in a line: Compound (A) in combination with palbociclib at a lower dose in MCF-7 xenograft model. Particulars: Compound (A) 60 mg/kg, palbociclib 25 mg/kg, alone or in combination; FIG. 7. In kind it is in vivo, mouse. As to the method: The antitumor activity of Compound (A) in combination with a CDK4/6 inhibitor, palbociclib at a lower dose was evaluated in the MCF-7 xenograft model. Each mouse was inoculated subcutaneously on the 2nd right mammary fat pad with 1.5×10^7 MCF-7 cells in 200 μL DMEM Matrigel mixture (1:1 ratio) without serum for the tumor development. In addition, estradiol benzoate injection was delivered by s.c. (40 ug/20 uL, twice weekly). The treatments were started when mean tumor size reached 203 mm^3. Mice were randomized into 4 groups (8 mice per group) and treated with vehicle control, 60 mg/kg Compound (A) alone, 25 mg/kg Palbociclib alone, Compound (A) at 60 mg/kg in combination with 25 mg/kg palbociclib. Study endpoints included daily body weight, clinical observations, tumor volume.

The test system of data set [2] is MCF-7 tumor cells. As to the kind of experiment: Antitumor activity of Compound (A) as single agent in MCF-7 xenograft model. Format: in vivo, mouse. How it is done: The antitumor activity of Compound (A) was assessed using the MCF-7 xenograft model. Each mouse was inoculated subcutaneously on the 2nd right mammary fat pad with 1.5×10^7 MCF-7 tumor cells in 200 μL DMEM Matrigel mixture (1:1 ratio) without serum for the tumor development. In addition, estradiol benzoate injection was delivered by s.c. (40 ug/20 uL, twice weekly). When mean tumor size reached 204 mm^3, animals were randomized into 2 groups (10 animals/group) and the treatments were initiated. Compound (A) or vehicle control was administered once daily by oral gavage and continued for 28-days. Study endpoints included daily body weight, clinical observations, tumor volume. […] In FIG. 3, the top line is vehicle, and the bottom line is Compound (A) (80 mg/kg qd×22 p.o).

The subject of data set [3] is tamoxifen resistant ZR-75-1 tumor cells (ZR-75-1R). The experiment in a line: Single agent efficacy in ZR-75-1 tamoxifen resistant tumor model. Particulars: post 28 days treatment; Tamoxifen 100 mg/kg 5 days per week for three weeks; Compound (A) 80 mg/kg orally daily for 28 days; FIG. 4. In kind it is in vivo, mouse. As to the method:
Compound (A)'s efficacy as a single agent was evaluated in ZR-75-1 tamoxifen resistant tumor model. The tamoxifen resistant ZR-75-1 tumor cells (ZR-75-1R) were maintained in vitro as monolayer culture in RPMI1640 Medium supplemented with 10% fetal bovine serum and 10 μM tamoxifen at 37° C. in an atmosphere of 5% CO2 incubator. Each mouse was then inoculated subcutaneously on the right flank with 1×10^7 ZR-75-1R tumor cells in 100 μL RPMI-1640 Matrigel mixture (1:1 ratio) without serum for the tumor development. In addition, estradiol benzoate injection was delivered by s.c. (40 ug/20 uL, twice weekly). Mice were then randomized into 3 groups when mean tumor size reached 191 mm^3 and treatment was started. Tamoxifen was dosed at 100 mg/kg 5 days per week for three weeks, Compound (A) was orally dosed at 80 mg/kg daily for 28 days. Study endpoints included daily body weight, clinical observations, tumor volume. In FIG. 4, the top line is Tamoxifen (100 mg/kg), the middle line is vehicle, and the bottom line is Compound (A) (80 mg/kg). […] No other gross clinical abnormalities were observed during the treatment period and animal body loss was manageable by giving animals dosing holiday.

Data set [4] has as its system HER2+ JIMT-1 breast cancer cell line. The experiment in a line: HER2+ JIMT-1 breast cancer xenograft, Study 1-Part 1. In kind it is in vivo. Particulars: Compound (A) 60 mg/kg p.o. qd × 28, trastuzumab 10 mg/kg i.p. qw × 4. As to the method: The HER2+ JIMT-1 breast cancer cell line was used for tumor xenograft inoculations and subsequent treatment. […] Treatment was started when mean tumor size reached 204 mm^3. Mice were then randomized into 5 groups and treatments were administered to the tumor-bearing mice accordingly to the study design in Table 2.

In data set [5] the test system is palbociclib-resistant breast cancer cells (CTG-1207). The experiment in a line: Palbociclib-resistant breast cancer PDX model (CTG-1207). In kind it is in vivo, mice. Particulars: Compound (A) 80 mg/kg, palbociclib 50 mg/kg, alone or in combination; FIG. 10A. How it is done:
The antitumor activity of Compound (A) in combination with palbociclib was further evaluated in a palbociclib-resistant breast cancer PDX model (CTG-1207). Mice were inoculated subcutaneously with palbociclib-resistant breast cancer cells in DMEM Matrigel mixture (1:1 ratio) without serum for tumor development. Once tumor size reached approximately 200 mm^3, mice were randomized into 4 groups (8 mice per group) and treated with vehicle control, 80 mg/kg Compound (A) alone, 50 mg/kg Palbociclib alone, or Compound (A) at 80 mg/kg in combination with 50 mg/kg palbociclib. Study endpoints included daily body weight, clinical observations, tumor volume.

Another data set has as its system HCC1428 tumor cells. As to the kind of experiment: Activity in mice bearing human HCC1428 breast cancer xenograft tumors. In kind it is in vivo. As to the method: The activity of Compound (A) as evaluated in mice bearing human HCC1428 breast cancer xenograft tumors. Each mouse was inoculated subcutaneously at the right flank with HCC1428 tumor cells (1×10^7) in 0.2 mL mixture of PBS and Matrigel (PBS: Matrigel=1:1) for tumor development, which has been subcutaneously implanted with 17beta-estradiol tablets (0.18 mg, 90-day release) two days before cell implantation. Treatments were started on day 21 after tumor inoculation when the average tumor size reached approximately 185 mm^3. The animals were assigned into two groups using an excel-based randomization software performing stratified randomization based upon their tumor volumes. Each group consisted of 10 tumor bearing mice. The vehicle control or Compound (A) at 80 mg/kg was administrated once daily to the mice by oral gavage for 28 days. In FIG. 5, the top line is vehicle, and the bottom line is Compound (A).

For data set [6], the system named is HER2+ JIMT-1 breast cancer cell line. The experiment in a line: HER2+ JIMT-1 breast cancer xenograft, Study 1-Part 2 (high initial tumor burden). Particulars: Day 14 of second part; tumors approximately 1000 mm^3 at start; Compound (A) 60 mg/kg p.o. qd; trastuzumab 10 mg/kg i.p. qw; vs. vehicle. In kind it is in vivo, NOD/SCID mice.
Setting [7] is: Compound (A) 80 mg/kg once daily p.o.
Where [8] appears, read: Compound (A) 80 mg/kg once daily p.o. 28 days.

Molecules are shown by their SMILES.

For the compound `CC(=O)c1c(C)c2cnc(Nc3ccc(N4CCNCC4)cn3)nc2n(C2CCCC2)c1=O` [palbociclib, reference compound], in the data set with MCF-7 tumor cells [1], the tumor regression is on record as 39.1% and the TGI was roughly 119%. Further, in the data set on MCF-7 cells, the TGI was 14.2%.
Take `C=CCn1c(=O)c2cnc(Nc3ccc(N4CCN(C)CC4)cc3)nc2n1-c1ccc2c(n1)[C@@](O)(CC)CC2` [Compound (A)]: in the data set on MCF-7 tumor cells [1], the tumor regression is on record as 32.7% and the TGI entry is “around 116%”. Besides, in the data set with MCF-7 tumor cells [2] (Compound (A) 80 mg/kg once daily by oral gavage, single agent, FIG. 3), the “inhibition of tumor growth” value was 132.6%. Besides, in the data set with MCF-7 tumor cells [2] (setting [7]), the clinical observations entry is “no adverse clinical observations” and the mean body weights result is “no significant impact on mean body weights”. Further, in data set [3], the “TGI (tumor growth inhibition)” value is given as 69.9%. Also, the “tumor growth inhibition (TGI) on Day 29 compared to respective vehicle controls” value in data set [4] (combination vs. either vehicle control) stood at 68%. The “TGI (%) vs. Vehicle A” value in data set [4] (Day 29, Vehicle A p.o.) worked out at 67.7%. Also, the TGI in the data set with MCF-7 cells amounted to 48.6%. Also, in data set [5], the “tumor growth / TGI (in words)” value was “reduced tumor growth”. Besides, the “tumor growth inhibition (TGI)” value in the data set with HCC1428 tumor cells (Compound (A) 80 mg/kg once daily by oral gavage for 28 days, FIG. 5) is reported as 96.2%. In the data set on HCC1428 tumor cells (setting [8]), the body weight loss entry is given as “no significant body weight loss” and the clinical observations result is “no adverse clinical observations”. In addition, in data set [6], the “TGI (%) on Day 14” value is 68.2%.
Take `CC/C(=C(\c1ccccc1)c1ccc(OCCN(C)C)cc1)c1ccccc1` [Tamoxifen, reference compound]: the “TGI (tumor growth inhibition)” value in data set [3] was −47.9%.
